Measurements from patent US9546129B2, “DTPA prodrugs, compositions thereof, and methods of using the same” (priority 2012, dated 2017).
Marks after values point to notes of the source that are not given here.

Test system: ^241Am contaminated beagle dogs (inhalation)
Test: Decorporation efficacy in beagle dogs after ^241Am nitrate inhalation (Example 2)
Format: in vivo, beagle dog
Conditions: for Average percent recovered activity, Feces / Average percent recovered activity, Urine: cumulative, Mean (SEM); for Average percent recovered activity, GIT / Average percent recovered activity, Kidney / Average percent recovered activity, Liver / Average percent recovered activity, Lung / Average percent recovered activity, Ovaries / Average percent recovered activity, Soft Tissue / Average percent recovered activity, Spleen / Average percent recovered activity, TBLN / Average percent recovered activity, Testes / Average percent recovered activity, Total Bone: day 14, Mean (SEM)
Protocol: The efficacy of C2E2 of Lot 050 obtained using Method 2 was evaluated in male and female beagle dogs administered a nitrate complex of americium-241 (^241Am) via inhalation (INH). C2E2 was administered 24 hours post ^241Am inhalation exposure. Animals were monitored and urine and feces were collected daily. Cages were rinsed daily. Animals were euthanized 14 days later and tissues collected. Tissues were processed and analyzed for ^241Am content. The in-life measurements and biokinetics of ^241Am with and without chelation treatment are described.
Sixteen (16) male and female beagle dogs underwent a 14-day quarantine period for acclimation. Once released from quarantine, animals were weighed and that weight was used to randomize the animals into the study. Dogs were 13.3±2.2 months of age at study initiation and weighed 8.9±1.2 kg. After randomization, the animals were acclimated to metabolism cages for approximately 24 hours prior to radionuclide inhalation administration of ^241Am(III)-nitrate at time 0 followed by oral gavage administration of vehicle (water) or 100, 300, or 500 mg/kg C2E2 at 24 hours post inhalation exposure. Animals were placed in metabolism cages for the duration of the in-life phase.
Animals were euthanized 14 days after administration of ^241Am. A full necropsy was conducted and liver, spleen, kidneys, lungs and trachea, muscle samples (right and left quadriceps), GI tract (stomach and esophagus, upper and lower intestine), gonads, two femurs, lumbar vertebrae (L1-L4), paws and tail, TBLN, and all soft tissue remains were collected. The brain and eyes were removed from the skull and combined with the soft tissue remains. The skeleton was defleshed and all bone samples collected for analysis. Pelt was not analyzed for ^241Am content.
Urine, feces, cage rinse, and all tissue samples were processed by heat and chemical treatments. The samples were analyzed by gamma pulse height analysis.
For the study, stock C2E2 (L/N: 020WJL050) was obtained as a white powder and stored at 2-8° C. The C2E2 was weighed out and dissolved in vehicle, DI water. Solutions were prepared at 20 mg/mL, 60 mg/mL, and 100 mg/mL on each day of dosing. The formulation was protected from light by wrapping the container in aluminum foil. Metal-free spatulas, glassware, and stir bars were used when weighing and preparing the formulation.
On the morning of exposure, animals were fasted and sedated with acepromazine (0.05 mg/kg) by intramuscular administration. Dogs were anesthetized with isoflurane (5%). A latex mask was placed over the muzzle to minimize external contamination of the dog. The latex-covered muzzle was placed into the exposure plenum where a mixture of oxygen and isoflurane were continuously flowing and being monitored. Oxygen in the box was maintained at 45-55% and isoflurane was delivered as needed (2-3% in oxygen) to ensure the dog remained anesthetized. Aerosols were generated from the ^241Am nitrate solution using a Hospitec nebulizer operated at 10 psi. The aerosol was transited through a tube furnace operating at 70-80° C. to dry the aerosol and minimize the amount of acid present.
The exhaust flow was 12.2 L/min. Aerosols were collected on Pallflex® FiberFilm™ filters at a flow rate of 0.49 L/min for filter samples and 1.95 L/min for cascade impactor samples. Filters were placed in 20-mL vials with 5 mL of 7N HNO3 and vortexed for 30 seconds. The filters were removed and placed singly into another 20-mL vial. A […] aliquot was removed from the original vial. The filter and the aliquot were individually analyzed for ^241Am and the amount collected on the filter was determined. The aerosol concentration was determined to be 1155±223 nCi/L. The particle size was determined to be 0.63 μm AMAD (activity median aerodynamic diameter) with a 1.72 geometric standard deviation (GSD). Animals were exposed for 8 minutes. […]

[1] = C2E2 100 mg/kg (low dose) vs untreated control, dogs, 100 mg/kg
[2] = C2E2 100 mg/kg oral 24 h after ^241Am inhalation, dogs
[3] = C2E2 300 mg/kg (mid dose) vs untreated control, dogs, 300 mg/kg
[4] = C2E2 300 mg/kg oral 24 h after ^241Am inhalation, dogs
[5] = C2E2 500 mg/kg (high dose) vs untreated control, dogs, 500 mg/kg
[6] = C2E2 500 mg/kg oral 24 h after ^241Am inhalation, dogs
[7] = treated groups vs controls, dose not specified

CCOC(=O)CN(CCN(CCN(CC(=O)O)CC(=O)OCC)CC(=O)O)CC(=O)O [C2E2, 6,9-bis(carboxymethyl)-3-(2-ethoxy-2-oxoethyl)-11-oxo-12-oxa-3,6,9-triazatetradecan-1-oic acid]
Percent ^241Am content reduction in tissue, GIT [1]: 43.9% | Percent ^241Am content reduction in tissue, Gonads [1]: 51.1% | Percent ^241Am content reduction in tissue, Kidneys [1]: 52.4% | Percent ^241Am content reduction in tissue, Liver [1]: 29.7% | Percent ^241Am content reduction in tissue, Lungs [1]: 30.6% | Percent ^241Am content reduction in tissue, Soft Tissue [1]: 47.1% | Percent ^241Am content reduction in tissue, Spleen [1]: 47.7% | Percent ^241Am content reduction in tissue, TBLN [1]: 22.9% | Percent ^241Am content reduction in tissue, Total Bone [1]: 41.6% | Average percent recovered activity, Feces [2]: 31.78 (3.21) % | Average percent recovered activity, Urine [2]: 22.35 (0.56)** % | Average percent recovered activity, GIT (C2E2 100 mg/kg, dogs): 0.53 (0.05)** % | Average percent recovered activity, Kidney (C2E2 100 mg/kg, dogs): 0.37 (0.03)** % | Average percent recovered activity, Liver (C2E2 100 mg/kg, dogs): 19.13 (1.34)** % | Average percent recovered activity, Lung (C2E2 100 mg/kg, dogs): 9.69 (1.77)* % | Average percent recovered activity, Ovaries (C2E2 100 mg/kg, dogs): 0.001 (0.000) % | Average percent recovered activity, Soft Tissue (C2E2 100 mg/kg, dogs): 1.08 (0.07)** % | Average percent recovered activity, Spleen (C2E2 100 mg/kg, dogs): 0.16 (0.03) % | Average percent recovered activity, TBLN (C2E2 100 mg/kg, dogs): 0.028 (0.002) % | Average percent recovered activity, Testes (C2E2 100 mg/kg, dogs): 0.003 (0.001)* % | Average percent recovered activity, Total Bone (C2E2 100 mg/kg, dogs): 14.90 (1.97)** % | Percent ^241Am content reduction in tissue, GIT [3]: 58.2% | Percent ^241Am content reduction in tissue, Gonads [3]: 66.3% | Percent ^241Am content reduction in tissue, Kidneys [3]: 63.0% | Percent ^241Am content reduction in tissue, Liver [3]: 51.0% | Percent ^241Am content reduction in tissue, Lungs [3]: 48.2% | Percent ^241Am content reduction in tissue, Soft Tissue [3]: 51.8% | Percent ^241Am content reduction in tissue, Spleen [3]: 74.8% | Percent ^241Am content reduction in tissue, TBLN [3]: 31.7% | Percent ^241Am content reduction in tissue, Total Bone [3]: 45.5% | Percent change in excretion, Feces [3]: 155% | Average percent recovered activity, Feces [4]: 41.85 (4.43)** % | Average percent recovered activity, Urine [4]: 21.93 (2.26)** % | Average percent recovered activity, GIT (C2E2 300 mg/kg, dogs): 0.39 (0.06)** % | Average percent recovered activity, Kidney (C2E2 300 mg/kg, dogs): 0.28 (0.04)** % | Average percent recovered activity, Liver (C2E2 300 mg/kg, dogs): 13.35 (1.51)** % | Average percent recovered activity, Lung (C2E2 300 mg/kg, dogs): 7.23 (0.89)** % | Average percent recovered activity, Ovaries (C2E2 300 mg/kg, dogs): 0.001 (0.001)* % | Average percent recovered activity, Soft Tissue (C2E2 300 mg/kg, dogs): 0.99 (0.12)** % | Average percent recovered activity, Spleen (C2E2 300 mg/kg, dogs): 0.07 (0.02)** % | Average percent recovered activity, TBLN (C2E2 300 mg/kg, dogs): 0.024 (0.004) % | Average percent recovered activity, Testes (C2E2 300 mg/kg, dogs): 0.003 (0.001)* % | Average percent recovered activity, Total Bone (C2E2 300 mg/kg, dogs): 13.93 (1.30)** % | Percent ^241Am content reduction in tissue, GIT [5]: 54.1% | Percent ^241Am content reduction in tissue, Gonads [5]: 55.3% | Percent ^241Am content reduction in tissue, Kidneys [5]: 61.8% | Percent ^241Am content reduction in tissue, Liver [5]: 71.7% | Percent ^241Am content reduction in tissue, Lungs [5]: 63.5% | Percent ^241Am content reduction in tissue, Soft Tissue [5]: 50.7% | Percent ^241Am content reduction in tissue, Spleen [5]: 69.0% | Percent ^241Am content reduction in tissue, TBLN [5]: 35.0% | Percent ^241Am content reduction in tissue, Total Bone [5]: 48.3% | Percent change in excretion, Urine [5]: 1310% | Average percent recovered activity, Feces [6]: 36.53 (1.18)* % | Average percent recovered activity, Urine [6]: 35.63 (0.70)** % | Average percent recovered activity, GIT (C2E2 500 mg/kg, dogs): 0.44 (0.05)** % | Average percent recovered activity, Kidney (C2E2 500 mg/kg, dogs): 0.29 (0.01)** % | Average percent recovered activity, Liver (C2E2 500 mg/kg, dogs): 7.71 (0.35)** % | Average percent recovered activity, Lung (C2E2 500 mg/kg, dogs): 5.10 (0.31)** % | Average percent recovered activity, Ovaries (C2E2 500 mg/kg, dogs): 0.001 (0.000) % | Average percent recovered activity, Soft Tissue (C2E2 500 mg/kg, dogs): 1.01 (0.02)** % | Average percent recovered activity, Spleen (C2E2 500 mg/kg, dogs): 0.09 (0.02)* % | Average percent recovered activity, TBLN (C2E2 500 mg/kg, dogs): 0.023 (0.003) % | Average percent recovered activity, Testes (C2E2 500 mg/kg, dogs): 0.003 (0.001)* % | Average percent recovered activity, Total Bone (C2E2 500 mg/kg, dogs): 13.20 (0.86)** % | In-life observations (dogs, single oral 100, 300, 500 mg/kg, one 500 mg/kg animal (4004) had foamy emesis): no unusual or adverse effects | Reduction of ^241Am content, TBLN [7]: About 50% | Reduction of ^241Am content, total bone content [7]: ~40%
